{
  "source": "paper PMC8333425",
  "about": "“Discovery of a dual Ras and ARF6 inhibitor from a GPCR endocytosis screen” (Nature Communications, 2021)",
  "test_system": "PI3K/Akt",
  "experiment": "PI3K/Akt BRET sensor (Akt (PH)-RlucII / rGFP-CAAX), EGFR-mediated",
  "assay_type": "cell-based, human",
  "method": "HEK293SL cells were seeded at a density of 7.5 × 10^5 cells per 100-mm dish and 24 h later, transiently transfected as such. For receptor internalization experiments, cells were transfected with 0.12 μg AT1R-RlucII, B2R-RlucII, or β2AR-RlucII and 0.48 μg of either rGFP-CAAX (to assess removal from the PM) or rGFP-FYVE (to assess accumulation in the endosomes). For β-arrestin recruitment assays, cells were transfected with 0.48 μg of receptor-YFP along with 0.12 μg of β-arrestin-RlucII. For β-arrestin/AP-2 binding experiments, cells were transfected with 1 μg Flag-AT1R, 1 μg β2-Adaptin-YFP, and 0.12 μg β-arrestin2-RlucII. For G protein activation, cells were transfected with 3 μg of sp-Flag-AT1R along with either 4.5 μg of the Gαq-polycistronic BRET sensor or 0.24 μg of the Gαi3-RlucII and 0.6 μg of GFP10-Gγ2 and Gβ1 sensors or 0.12 μg PKN-RBD-RlucII and 0.48 μg of rGFP-CAAX. For PKC activation, cells were transfected with 3 μg of sp-Flag-AT1R and 0.18 μg of the PKC sensor. For GTPase activation experiments, cells were transfected with 1 μg Flag-AT1R, 0.48 μg of rGFP-CAAX, and either 0.12 μg of GGA3-PBD-RlucII, PAK-CRIB-RlucII or Raf-RBD-RlucII. For biosensor validation experiments, cells were additionally transfected with 500 ng Flag-K-Ras-WT, Flag-K-Ras-G12V, Flag-K-Ras-SOS-CAAX, HA-ARF6-WT, HA-ARF6-T27N, Myc-Rac1-WT, Myc-Rac1-Q61L or Myc-Rac1-T17N. For PI3K/Akt activation experiments, cells were transfected with 0.48 μg of rGFP-CAAX and 0.12 μg of Akt (PH)-RlucII. After 18 h of transfection, the media was replaced and cells were divided for subsequent experiments. Cells were detached and seeded onto poly-L-ornithine-coated 96-well flat white bottom plates (BrandTech Scientific) at a density of 2.5 × 10^4 cells per well in media. The next day, cells were washed once with Tyrode’s buffer (140 mM NaCl, 2.7 mM KCl, 1 mM CaCl2, 12 mM NaHCO3, 5.6 mM D-glucose, 0.5 mM MgCl2, 0.37 mM NaH2PO4, 25 mM HEPES, pH 7.4) and left in Tyrode’s buffer. For kinetics of β-arrestin recruitment or β-arrestin binding to receptor and AP-2 experiments, cells were serum starved for 30 min, pretreated with 21 (50 µM) or Barbadin (100 µM) for 30 min, stimulated with 100 nM AngII or 1 µM BK and BRET signals were monitored at indicated times using a Victor X Light plate reader (PerkinElmer). Coelenterazine H (final concentration of 5 µM) was added 3–5 min prior to BRET measurements. Filter set was 460/80 nm and 535/30 nm for detecting the RlucII Renilla luciferase (donor) and YFP (acceptor) light emissions, respectively. The BRET ratio was determined by calculating the ratio of the light emitted by YFP over the light emitted by the RlucII. For G protein activation, cells were serum starved, pretreated with compounds for 30 min, stimulated with 100 nM AngII for 2 min (Gαq, Gαi3, and Rho sensors) or 5 min (PKC sensor). For the kinetics of GTPase and PI3K/Akt activation, cells were serum starved, pretreated with 21 (50 µM) or Wortmannin (200 nM) for 30 min, stimulated with ligand (100 nM AngII or 100 ng/ml EGF) and BRET signals were monitored at indicated times. For concentration-response curves, cells were serum-starved, pretreated with various concentrations of compounds for 30 min and stimulated with ligand (100 nM AngII, 1 µM BK, 10 µM Isoproterenol (Iso) or 100 ng/ml EGF) in Tyrode’s buffer for 30 min for receptor internalization, 10 min for ARF6, 2 min for Rac and Rho activation and 5 min for Ras activation and PI3K/Akt activation. BRET signals were monitored using a Synergy2 (BioTek) microplate reader and coelenterazine 400a (final concentrations of 5 µM) added 3–5 min prior to BRET measurements. Filter set was 410/80 nm and 515/30 nm for detecting the RlucII Renilla luciferase (donor) and rGFP/GFP10 (acceptor) light emissions, respectively. The BRET ratio was determined by calculating the ratio of the light emitted by rGFP/GFP10 over the light emitted by the RlucII.",
  "note": "Values joined by “and” are separate entries in the source; they are usually repeats but may differ in a detail not shown here. Equal entries are not always repeated.",
  "data": [
    {"compound": "CC(C)C(=O)N1CCN(c2ccc(NC(=O)c3cc4ccccc4o3)cc2Cl)CC1", "note": "[Compound 21]", "values": [
      {"measurement": "IC50", "setting": "Homo sapiens, read-out: potency for inhibition of EGFR-mediated Akt (BRET assay)", "value": "4 to 5", "unit": "µM"},
      {"measurement": "EGF-promoted BRET", "setting": "Log [Comp 21] (M) -4.30103", "value": "0.039 and 0.07107 and 0.056"},
      {"measurement": "EGF-promoted BRET", "setting": "Log [Comp 21] (M) -5.32288", "value": "0.1533 and 0.2873 and 0.2883"},
      {"measurement": "EGF-promoted BRET", "setting": "Log [Comp 21] (M) -6", "value": "0.6727 and 0.6567 and 0.6163"},
      {"measurement": "EGF-promoted BRET", "setting": "Log [Comp 21] (M) -6.32288", "value": "0.7007 and 0.6398 and 0.6137"},
      {"measurement": "EGF-promoted BRET", "setting": "Log [Comp 21] (M) -7", "value": "0.7123 and 0.6372 and 0.6493"}
    ]}
  ]
}
